Source: the METLIN SMRT retention time set (Domingo-Almenara et al. 2019)

Assay: gradient 5% acetonitrile 3 min, to 50% in 2 min, to 85% in 15 min, held 3 min, 100 µL/min
Conditions: column: Zorbax Extend-C18 2.1 x 50 mm; eluents: water / acetonitrile, 0.1% formic acid
Outline: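 Retention times come from adduct peaks that were picked computationally and then checked by hand. The standards, pure and pooled in mixtures of ~100 molecules, were run on a Zorbax Extend-C18 column (2.1 × 50 mm, 1.8 μm) at 100 μL/min with water and acetonitrile, each with 0.1% formic acid. Detection was by quadrupole time-of-flight mass spectrometry in positive and negative ionization mode, with a dead volume of 40 μL and a dwell volume of 900 μL.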

RP-LC retention time [s]	SMILES
839	NC(=O)c1c(NC(=O)C2CCCN(C(=O)c3ccc4c(c3)OCCO4)C2)sc2c1CCCC2 (centres undefined)
649	CN(C)CCCNC(=O)C1CCN(c2nc3ccc(-c4ccccc4F)nc3s2)CC1
1310	Cc1ccc(NS(=O)(=O)c2cc(-c3nc(C(C)(C)C)cs3)cs2)c(C)c1
628	O=S(=O)(Cc1ccccc1)N1CCC(Cc2nc(-c3cccnc3)n[nH]2)C1 (centres undefined)
1080	O=C(NCc1ccccc1)c1cc2sccc2n1Cc1ccc(F)cc1
747	O=C(CN1C(=O)c2cccc3cccc(c23)C1=O)NCc1ccc2c(c1)OCO2
671	Cc1cc(NS(=O)(=O)c2cc3n(c2)CCCNC3=O)ccc1F
889	Cc1ccc(C(=O)N2CCCC2COc2ccc(C(=O)NC(C)C)cc2)cc1F (centres undefined)
1330	CCCN(C)S(=O)(=O)c1cc(-c2nc(C(C)(C)C)cs2)cs1
737	O=C(Cn1c(=O)cc(C(=O)N2CCCC2)c2ccccc21)Nc1cc(F)ccc1F
575	O=C(Nc1ccc(Cl)cc1F)N1CCCN(C2CCN(CC3CC3)C2=O)CC1 (centres undefined)
590	OCC1CN(c2ncccn2)CC12CCN(Cc1ccc(Cl)cc1F)CC2 (centres undefined)
647	CC(C)CN1CCn2cc(C(=O)NCc3ccc(F)c(Cl)c3)nc2C1
822	O=C(Nc1cnc(N2CCCCCC2)nc1)c1ccsc1
583	COCCNC(=O)Nc1ccc(CCc2nc3ccccc3n2C)cc1
1060	Cc1noc2nc(CCC(=O)N3CCc4ccccc43)nc(N3CCCCCC3)c12
630	Cc1ccc(NC(=O)C2(CCO)CCN(c3ncccn3)C2)cc1 (centres undefined)
795	Cn1c(=O)c2c(nc([N+](=O)[O-])n2Cc2ccc(F)cc2)n(C)c1=O
771	CC1=C(c2ccc(C)c(C)c2)S(=O)(=O)N=C1N1CCCN(C(=O)c2ccccn2)CC1
1210	COC(=O)c1ccc2c(=O)n(-c3ccccc3)c(N3CCC(C)CC3)nc2c1
779	O=C(NCc1cccs1)C1CCN(Cc2cc3ccccc3n2Cc2cccc(F)c2)CC1
910	CCOc1nc2c(c(C)nn2-c2cccc(C)c2)c(C)c1CCC(=O)N1CCN(c2ccccn2)CC1

RP-LC retention time [s]	SMILES
1280	CCN(C(=O)c1ccco1)c1nc(-c2ccc(C)cc2)cs1
957	O=C(NC1CCCCC1)C1CCCN(c2nc3ccsc3c(=O)n2Cc2ccccc2)C1 (centres undefined)
1110	CC(C)Oc1ccc(-c2noc(Cc3nnc(-c4ccc(F)cc4)o3)n2)cc1
1060	COc1ccc(-c2nc(-c3cccc(-c4ccn[nH]4)c3)no2)c(C)c1
893	CCc1ccccc1NC(=O)C1CCN(S(=O)(=O)c2ccc3c(c2)NC(=O)C(CC)O3)CC1 (centres undefined)
899	O=C(c1ccc(-c2ccc3c(c2)CCN3S(=O)(=O)c2ccccc2F)cc1)N1CCOCC1
745	Cc1ccc(C)c(NC(=O)N2CCCN(c3ccc(=O)n(-c4ccccc4)n3)CC2)c1
1050	CC1(C)CC(=O)c2c(O)cc(OCC(=O)N3CCN(c4ccc(Cl)cc4)CC3)cc2O1
602	Cc1ccnc(NC(=O)C2CC(=O)N(c3n[nH]c4cccc(F)c34)C2)c1 (centres undefined)
826	CCc1nnc(-c2ccc(NC(=O)c3ccc(S(=O)(=O)N(CC)CC)cc3)cc2)o1
759	COCCNC(=O)c1nccnc1NC(=O)c1ccc(C)cc1
539	CN(C)CC(=O)N1CCC(Oc2nccnc2N(C)C)C1 (centres undefined)
872	Cc1ccc(-n2nc(C)c3c(=O)n(CC(=O)NCc4ccccc4Cl)ccc32)cc1
1190	CCCCc1nc(N2CCN(C(=O)c3ccco3)CC2)c(C#N)c2c1COC(C)(C)C2
607	Cc1cc(CN2CCC(CNC(=O)C(=O)NCCC3=CCCCC3)CC2)c(C)o1
879	COc1ccc(CNC(=O)c2ccc3c(=O)n(-c4ccccc4)c(N4CCCC4)nc3c2)c(OC)c1
625	O=C(c1cccs1)N1CCN(c2cnn3c(C4CC4)nnc3c2)CC1
740	Cc1ccc(NC(=O)Nc2ccc(NC(=O)N3CCC(C(=O)NCC4CC4)CC3)cc2)cc1
814	Cc1ccccc1Nc1c(-c2cc(Br)ccc2F)nc2cccc(C)n12
645	NC(=O)c1cc(-c2ccc(F)cc2)n[nH]1
839	CN1C(=O)c2cc(C(=O)NCc3ccccc3Cl)nn2CC1(C)C(=O)NC1CCCCC1 (centres undefined)
1150	COc1ccc(/C=C/c2nc(-c3ccc4oc(C)nc4c3)no2)cc1

RP-LC retention time [s]	SMILES
778	O=C(Nc1cnc(N2CCCCCC2)nc1)C1CCC1
558	O=C(NCc1c[nH]c2ncccc12)C1CCC1
587	Cc1noc2ncnc(N3CCC(C(=O)NCCCN4CCCCC4C)CC3)c12 (centres undefined)
663	O=C(NCCN1CCCC1)C1CCCN(c2ccc(Sc3ccc(Br)cc3)nn2)C1 (centres undefined)
1120	Cc1ccc(Nc2c(-c3cc(Br)ccc3O)nc3ncccn23)c(C)c1
716	CN(C)c1ncccc1C(=O)Nc1ccccc1Cl
1210	O=C(Cc1csc(-c2ccccc2)n1)Nc1nc(-c2ccc(Cl)cc2)cs1
894	CCc1noc(NC(C)=O)c1-c1ccc(OC)c(S(=O)(=O)Nc2cccc(Cl)c2C)c1
603	COc1ccc(N2CCN(C(=O)c3cc(NC(C)=O)cc4nc(C)ccc34)CC2)cc1
723	Cc1cccc(CN2CCN(CC(=O)NCc3ccc4c(c3)OCO4)C(=O)C2=O)c1
653	CNCc1ccc(-c2cc(Cl)ccc2Cl)o1
798	CC(=O)Nc1nsc(N2CCC(C(=O)NCc3ccc(F)cc3F)CC2)n1
947	CCOC(=O)c1cc(S(=O)(=O)N2CCCC2C(=O)Nc2nc3ccc(OC)cc3s2)cn1C (centres undefined)
805	COc1ccc(C(=O)N2CCN(c3ccc(-c4nc(C)cs4)cn3)CC2)cc1
578	COCCNC(=O)N1CC(c2nc(C3CC3)no2)C1
588	CN(C)c1ncncc1N1CCC(C(=O)NCc2ccco2)CC1
660	O=C(NC1COc2ccccc2C1)N1CCOCC1 (centres undefined)
714	O=c1c2cnc3nc(-c4ccc(Cl)cc4)nn3c2ccn1CCCO
787	COC(=O)c1c(NCc2ccccc2Br)c2cc(F)ccc2[nH]c1=O
704	COc1ncccc1CNC(=O)c1cccn1C
632	CC1CCN(Cc2csc(N3CCN(C(=O)c4ccc5c(c4)OCO5)CC3)n2)CC1
779	Cn1cc(CCNC(=O)Nc2ccccc2C(F)(F)F)c2cccnc21

RP-LC retention time [s]	SMILES
1100	COc1ccc(-c2nc(Cn3c(=O)c4c(C)cc(C)nc4n(C)c3=O)c(C)o2)cc1OC
786	Cn1nccc1C(=O)Nc1ccc(OCc2nnc(-c3ccccc3)o2)cc1
727	Clc1ccc(-c2nc3ccccn3c2Nc2ccc3c(c2)OCO3)cc1
1030	Cn1nccc1-c1cccc(-c2noc(-c3cccs3)n2)c1
706	Cc1ccc(F)cc1NS(=O)(=O)c1cc(-c2[nH]ncc2C(=O)N(C)C)oc1C
838	CNC(=O)N1CCCC(c2cccc(C(=O)NCc3ccccc3C(F)(F)F)c2)C1 (centres undefined)
702	N#Cc1ccc2[nH]cc(CCCCN3CCN(c4ccc5oc(C(N)=O)cc5c4)CC3)c2c1
807	COc1cccc(Cn2cccc(S(=O)(=O)N3CCCC3)c2=O)c1
1030	Cc1ccc(-c2nc(C)cc(OCC(=O)Nc3ccccc3C)n2)cc1
843	COc1ccc2nc(C(=O)NCc3ccccc3C)cn2n1
802	c1ccc(CC2CCN(Cc3nc(-c4ccc(N5CCCCC5)nc4)no3)CC2)cc1
660	Cc1ccn2cc(-c3ccc(NC(=O)c4ccc([N+](=O)[O-])cc4Cl)cc3)nc2n1
814	Cc1cccc(CCNC(=O)c2cc3n(n2)CC(C)(C(=O)NCc2ccccc2)N(C)C3=O)c1 (centres undefined)
680	Cc1cc(SCC(=O)Nc2ccc3c(c2)OCO3)nc(-c2cnccn2)n1
604	Cc1cc(NC(=O)C2CCN(c3ccc(-c4cccs4)nn3)CC2)sn1
937	COc1ccc(-c2nc(C3CC(=O)N(c4ccc(C)cc4)C3)no2)cc1OC (centres undefined)
904	Cc1nc(-c2ccc(C(=O)N3CCC(C)CC3)cc2)cs1
722	COc1ccc(Cl)cc1S(=O)(=O)N1CCC(c2cc3n(n2)CCCNC3=O)CC1
614	O=C(CN1C(=O)CCSc2ccccc21)NCCCN1CCN(Cc2ccccc2)CC1
997	Cc1ccc(C)c(N2CCN(c3ccnc(SCC(=O)Nc4ccc(F)c(Cl)c4)n3)CC2)c1
1260	CCOc1ccccc1-c1noc(-c2nnn(Cc3nc(-c4cccc(C)c4)oc3C)c2C)n1
764	CC1=C(c2ccc(C)c(C)c2)S(=O)(=O)N=C1N1CCCN(C(=O)c2ccoc2)CC1

SMILES	RP-LC retention time [s]
CC(C)(Cc1c[nH]c2ccc(Cl)cc12)NCCOc1ccccc1OCC1CC1	953
